Molecular target: T1, BRD4 (Homo sapiens, UniProt O60885)
T1 construct: endogenous in cells; host or cells: HEK293
Experiment: BRD4 degradation in HEK293 cells (Western blot)
Format: cell-based
Conditions: lysed after 24, Western blot
Description: On day 1, 6.25×10^5 HEK293 cells were seeded per well into a 12-well plate. After 24, cells were lysed in wells with 80 ul of pre-chilled RIPA Lysis buffer (Beyotime, P0013B) with protease/phosphatase inhibitor (Roche 4693116001/Roche 04906837001) for 20 min at 4 degree on a rocker, then spun down at 20,000g at 4 degree for 10 min and the BCA assay was run. 39 ul of supernatant was transferred to a fresh EP tube containing 15 ul of 4X LDS loading buffer and 6 ul 10X reducing agent to make the loading samples. The samples were then heated to 70° C. for 10 minutes, cooled to RT, and stored under−20° C. Samples were loaded with equal amount of protein onto 4-12% Bis -Tris SDS-PAGE 26 wells gel (Novex, WG1403BOX) and the gel was run for 1.5 hours at 120 V. Electrotransfer to NC membrane was completed using wet-transfer method with 250 mA for 80 min and the membrane was blocked in 5% BSA (Solarbio,A8020) with 1X TBST for 1 hour. The samples were incubated with primary antibody prepared in blocking buffer (LI-COR, 927-60001) at 4° C. overnight and the membrane was washed three times with 1X TBST, 5 minutes each. Incubate with secondary antibody for 1 hour at RT (anti-rabbit IgG (Licor,926-32211) 1:5000; anti-mouse IgG (LI-COR, 926-68070)1:5000). The membrance was then washed three times with 1X TBST, 5 minutes each and once with RO H2O, then read on LiCOR.

KLHDC2-dependent BRD4 degradation (FIG. 4): KLHDC2-dependent BRD4 degradation
BRD4 degradation (FIGS. 2-3): BRD4 degradation
SMILES: Cc1sc2c(c1C)C(c1ccc(Cl)cc1)=N[C@@H](CC(=O)NCCCCCCCCCCCCCCN(C(=O)C1CCCN(c3cncc4ccccc34)C1)c1ccc(=O)n(CC(=O)O)c1)c1nnc(C)n1-2 (some centres unmarked) [I-481]
